The source of these data is ChEMBL document CHEMBL2010665, “Novel, druglike 1,7-disubstituted 2,3,4,5-tetrahydro-1H-benzo[b]azepine-based selective inhibitors of human neuronal nitric oxide synthase (nNOS)” (Bioorg Med Chem Lett, 2012).

The target in one data set is Nitric oxide synthase 1 (Homo sapiens, UniProt P29475). Put plainly: Inhibition of human recombinant nNOS expressed in baculovirus infected insect sf9 cells assessed as conversion of [3H]-L-arginine into [3H]-L-citrulline by radiometric method.
Chain of Nitric oxide synthase 1 (P29475 whole entry): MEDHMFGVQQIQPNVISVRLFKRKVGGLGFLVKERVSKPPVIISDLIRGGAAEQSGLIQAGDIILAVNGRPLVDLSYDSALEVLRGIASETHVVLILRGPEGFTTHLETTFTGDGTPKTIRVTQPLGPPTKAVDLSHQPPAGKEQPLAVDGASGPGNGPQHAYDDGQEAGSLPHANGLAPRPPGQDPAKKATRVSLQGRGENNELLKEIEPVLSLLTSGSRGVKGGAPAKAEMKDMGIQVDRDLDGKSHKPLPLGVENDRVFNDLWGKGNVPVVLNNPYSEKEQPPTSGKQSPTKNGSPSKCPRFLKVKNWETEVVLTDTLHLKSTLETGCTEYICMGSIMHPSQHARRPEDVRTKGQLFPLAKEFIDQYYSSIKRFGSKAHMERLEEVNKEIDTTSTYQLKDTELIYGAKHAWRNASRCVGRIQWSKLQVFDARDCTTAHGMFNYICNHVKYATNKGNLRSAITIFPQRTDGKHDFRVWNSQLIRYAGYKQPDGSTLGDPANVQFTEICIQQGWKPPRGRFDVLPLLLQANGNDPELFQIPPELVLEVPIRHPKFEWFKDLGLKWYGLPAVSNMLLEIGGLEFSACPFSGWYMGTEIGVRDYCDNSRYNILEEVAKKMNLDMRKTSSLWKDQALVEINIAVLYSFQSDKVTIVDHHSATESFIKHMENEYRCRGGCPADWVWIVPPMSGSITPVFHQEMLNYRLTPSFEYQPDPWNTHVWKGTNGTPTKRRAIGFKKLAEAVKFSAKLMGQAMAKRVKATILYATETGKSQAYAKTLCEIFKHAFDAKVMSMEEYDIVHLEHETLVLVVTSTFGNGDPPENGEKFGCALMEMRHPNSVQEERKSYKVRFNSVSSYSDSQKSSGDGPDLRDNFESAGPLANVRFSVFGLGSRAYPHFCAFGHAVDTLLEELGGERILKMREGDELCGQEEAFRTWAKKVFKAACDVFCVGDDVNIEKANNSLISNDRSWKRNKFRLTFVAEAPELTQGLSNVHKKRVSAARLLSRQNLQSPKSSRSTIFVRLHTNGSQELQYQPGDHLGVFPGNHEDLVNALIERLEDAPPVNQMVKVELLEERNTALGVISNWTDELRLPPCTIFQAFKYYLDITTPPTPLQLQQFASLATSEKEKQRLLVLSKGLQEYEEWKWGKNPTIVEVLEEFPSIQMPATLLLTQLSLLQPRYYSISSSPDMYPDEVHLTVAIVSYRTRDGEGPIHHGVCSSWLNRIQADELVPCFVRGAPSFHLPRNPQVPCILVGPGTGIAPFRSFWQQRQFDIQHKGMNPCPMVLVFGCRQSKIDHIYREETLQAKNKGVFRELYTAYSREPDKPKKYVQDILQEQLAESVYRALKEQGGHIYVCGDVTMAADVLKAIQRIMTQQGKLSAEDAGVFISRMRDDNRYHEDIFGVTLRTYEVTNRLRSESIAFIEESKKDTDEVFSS
The next data set deals with T1, Nitric oxide synthase 3 (Homo sapiens, UniProt P29474).
T1 sequence (P29474 whole entry): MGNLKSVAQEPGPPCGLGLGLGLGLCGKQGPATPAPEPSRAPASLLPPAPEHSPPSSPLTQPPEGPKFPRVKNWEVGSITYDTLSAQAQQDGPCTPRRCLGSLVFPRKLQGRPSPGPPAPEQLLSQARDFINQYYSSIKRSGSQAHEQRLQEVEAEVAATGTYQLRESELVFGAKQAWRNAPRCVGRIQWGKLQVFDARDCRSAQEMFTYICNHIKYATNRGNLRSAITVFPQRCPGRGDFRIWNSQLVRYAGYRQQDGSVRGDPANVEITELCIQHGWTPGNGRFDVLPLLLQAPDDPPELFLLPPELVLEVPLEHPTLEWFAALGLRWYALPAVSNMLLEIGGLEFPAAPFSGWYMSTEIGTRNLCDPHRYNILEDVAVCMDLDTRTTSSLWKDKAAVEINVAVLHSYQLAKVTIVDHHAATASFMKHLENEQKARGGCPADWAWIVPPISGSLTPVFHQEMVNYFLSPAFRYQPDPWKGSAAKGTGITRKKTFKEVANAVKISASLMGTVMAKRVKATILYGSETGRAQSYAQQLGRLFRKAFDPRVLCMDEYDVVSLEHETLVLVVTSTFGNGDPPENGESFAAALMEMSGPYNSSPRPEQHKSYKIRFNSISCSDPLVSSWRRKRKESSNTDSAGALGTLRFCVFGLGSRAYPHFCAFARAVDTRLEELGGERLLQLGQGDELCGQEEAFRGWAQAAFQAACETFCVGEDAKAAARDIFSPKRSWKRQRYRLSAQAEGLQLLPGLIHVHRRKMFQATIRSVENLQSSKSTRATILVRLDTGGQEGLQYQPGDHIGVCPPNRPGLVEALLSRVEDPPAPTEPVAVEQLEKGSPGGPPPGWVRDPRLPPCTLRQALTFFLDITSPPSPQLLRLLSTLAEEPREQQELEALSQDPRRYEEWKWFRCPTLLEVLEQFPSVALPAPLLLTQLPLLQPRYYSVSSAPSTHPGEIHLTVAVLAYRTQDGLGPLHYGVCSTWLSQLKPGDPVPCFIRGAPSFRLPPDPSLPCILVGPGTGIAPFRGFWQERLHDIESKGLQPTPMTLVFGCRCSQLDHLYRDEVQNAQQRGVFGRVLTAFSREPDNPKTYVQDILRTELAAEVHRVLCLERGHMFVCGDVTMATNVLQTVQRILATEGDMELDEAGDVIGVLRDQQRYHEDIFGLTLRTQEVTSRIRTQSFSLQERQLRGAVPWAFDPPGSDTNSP
Briefly: Inhibition of human recombinant eNOS expressed in baculovirus infected insect sf9 cells assessed as conversion of [3H]-L-arginine into [3H]-L-citrulline by radiometric method.

The target in data set [1] is Nitric oxide synthase, inducible (Homo sapiens, UniProt P35228). Briefly: Inhibition of human recombinant iNOS expressed in baculovirus infected insect sf9 cells assessed as conversion of [3H]-L-arginine into [3H]-L-citrulline by radiometric method.
Chain of Nitric oxide synthase, inducible (Homo sapiens, UniProt P35228) (P35228 whole entry): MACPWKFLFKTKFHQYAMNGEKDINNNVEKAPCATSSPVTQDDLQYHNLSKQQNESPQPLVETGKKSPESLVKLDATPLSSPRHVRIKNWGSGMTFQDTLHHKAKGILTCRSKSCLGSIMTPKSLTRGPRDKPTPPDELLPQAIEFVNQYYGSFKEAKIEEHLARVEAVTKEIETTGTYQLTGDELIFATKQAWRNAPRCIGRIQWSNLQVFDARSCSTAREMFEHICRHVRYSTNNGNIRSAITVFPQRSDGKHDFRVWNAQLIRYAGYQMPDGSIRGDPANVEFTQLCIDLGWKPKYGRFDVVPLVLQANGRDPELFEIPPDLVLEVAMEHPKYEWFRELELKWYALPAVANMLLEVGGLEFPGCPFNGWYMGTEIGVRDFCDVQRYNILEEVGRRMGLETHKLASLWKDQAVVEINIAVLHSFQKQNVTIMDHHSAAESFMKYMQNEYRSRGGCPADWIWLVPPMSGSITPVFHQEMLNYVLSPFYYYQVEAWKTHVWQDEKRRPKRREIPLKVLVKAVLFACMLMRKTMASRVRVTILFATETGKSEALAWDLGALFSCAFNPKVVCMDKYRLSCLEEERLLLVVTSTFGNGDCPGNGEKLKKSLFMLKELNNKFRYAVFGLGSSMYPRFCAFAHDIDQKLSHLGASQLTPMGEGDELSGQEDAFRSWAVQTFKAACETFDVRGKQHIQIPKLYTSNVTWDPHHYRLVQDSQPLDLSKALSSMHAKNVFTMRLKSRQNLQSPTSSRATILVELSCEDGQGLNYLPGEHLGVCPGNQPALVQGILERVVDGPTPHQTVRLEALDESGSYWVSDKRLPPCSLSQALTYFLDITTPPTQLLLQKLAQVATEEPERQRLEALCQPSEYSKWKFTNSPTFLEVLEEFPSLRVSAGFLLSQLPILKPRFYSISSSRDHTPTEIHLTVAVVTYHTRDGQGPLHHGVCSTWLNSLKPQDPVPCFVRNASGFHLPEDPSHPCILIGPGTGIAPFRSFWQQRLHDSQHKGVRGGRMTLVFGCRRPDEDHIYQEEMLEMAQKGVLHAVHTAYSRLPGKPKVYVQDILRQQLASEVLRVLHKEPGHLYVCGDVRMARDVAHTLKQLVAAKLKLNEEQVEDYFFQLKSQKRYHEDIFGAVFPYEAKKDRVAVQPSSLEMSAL
The target in data set [2] is Voltage-gated inwardly rectifying potassium channel KCNH2 (Homo sapiens, UniProt Q12809). Briefly: Inhibition of human Erg expressed in HEK293 cells up to 30 uM by patch clamp assay. Type of data set: cell-based.
Chain of Voltage-gated inwardly rectifying potassium channel KCNH2 (Q12809 whole entry): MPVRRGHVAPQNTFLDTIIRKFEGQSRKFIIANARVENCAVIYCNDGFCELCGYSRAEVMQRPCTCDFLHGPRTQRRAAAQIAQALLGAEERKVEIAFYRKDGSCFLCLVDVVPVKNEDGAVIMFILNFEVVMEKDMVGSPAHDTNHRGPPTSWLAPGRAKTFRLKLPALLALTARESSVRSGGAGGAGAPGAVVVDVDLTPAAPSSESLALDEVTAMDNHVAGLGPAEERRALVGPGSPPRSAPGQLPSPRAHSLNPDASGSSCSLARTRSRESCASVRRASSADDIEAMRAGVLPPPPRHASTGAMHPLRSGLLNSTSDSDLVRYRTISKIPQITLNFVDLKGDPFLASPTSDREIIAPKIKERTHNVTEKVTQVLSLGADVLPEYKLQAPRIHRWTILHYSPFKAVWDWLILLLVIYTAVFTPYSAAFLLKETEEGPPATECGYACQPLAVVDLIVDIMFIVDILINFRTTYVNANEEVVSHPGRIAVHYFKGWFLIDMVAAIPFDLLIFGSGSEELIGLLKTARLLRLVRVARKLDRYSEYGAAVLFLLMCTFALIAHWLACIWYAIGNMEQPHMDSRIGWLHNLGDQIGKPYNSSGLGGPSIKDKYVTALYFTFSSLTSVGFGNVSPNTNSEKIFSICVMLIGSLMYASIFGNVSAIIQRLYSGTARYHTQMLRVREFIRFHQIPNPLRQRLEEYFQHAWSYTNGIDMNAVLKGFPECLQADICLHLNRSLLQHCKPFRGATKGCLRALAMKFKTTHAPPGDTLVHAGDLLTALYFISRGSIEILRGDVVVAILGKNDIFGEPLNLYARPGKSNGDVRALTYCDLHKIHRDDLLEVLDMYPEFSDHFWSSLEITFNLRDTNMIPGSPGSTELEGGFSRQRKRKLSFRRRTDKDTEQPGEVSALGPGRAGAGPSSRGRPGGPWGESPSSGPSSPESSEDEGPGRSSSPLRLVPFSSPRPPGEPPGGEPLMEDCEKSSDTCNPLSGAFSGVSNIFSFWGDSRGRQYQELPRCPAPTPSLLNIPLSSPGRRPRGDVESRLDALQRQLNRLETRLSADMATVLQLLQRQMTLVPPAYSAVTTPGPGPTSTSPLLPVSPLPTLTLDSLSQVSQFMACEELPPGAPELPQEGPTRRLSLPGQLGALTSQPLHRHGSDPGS
Data set [3] deals with Nitric oxide synthase, inducible (Rattus norvegicus, UniProt Q06518). Put plainly: Inhibition of rat iNOS.
Chain of Nitric oxide synthase, inducible (Rattus norvegicus, UniProt Q06518) (Q06518 whole entry): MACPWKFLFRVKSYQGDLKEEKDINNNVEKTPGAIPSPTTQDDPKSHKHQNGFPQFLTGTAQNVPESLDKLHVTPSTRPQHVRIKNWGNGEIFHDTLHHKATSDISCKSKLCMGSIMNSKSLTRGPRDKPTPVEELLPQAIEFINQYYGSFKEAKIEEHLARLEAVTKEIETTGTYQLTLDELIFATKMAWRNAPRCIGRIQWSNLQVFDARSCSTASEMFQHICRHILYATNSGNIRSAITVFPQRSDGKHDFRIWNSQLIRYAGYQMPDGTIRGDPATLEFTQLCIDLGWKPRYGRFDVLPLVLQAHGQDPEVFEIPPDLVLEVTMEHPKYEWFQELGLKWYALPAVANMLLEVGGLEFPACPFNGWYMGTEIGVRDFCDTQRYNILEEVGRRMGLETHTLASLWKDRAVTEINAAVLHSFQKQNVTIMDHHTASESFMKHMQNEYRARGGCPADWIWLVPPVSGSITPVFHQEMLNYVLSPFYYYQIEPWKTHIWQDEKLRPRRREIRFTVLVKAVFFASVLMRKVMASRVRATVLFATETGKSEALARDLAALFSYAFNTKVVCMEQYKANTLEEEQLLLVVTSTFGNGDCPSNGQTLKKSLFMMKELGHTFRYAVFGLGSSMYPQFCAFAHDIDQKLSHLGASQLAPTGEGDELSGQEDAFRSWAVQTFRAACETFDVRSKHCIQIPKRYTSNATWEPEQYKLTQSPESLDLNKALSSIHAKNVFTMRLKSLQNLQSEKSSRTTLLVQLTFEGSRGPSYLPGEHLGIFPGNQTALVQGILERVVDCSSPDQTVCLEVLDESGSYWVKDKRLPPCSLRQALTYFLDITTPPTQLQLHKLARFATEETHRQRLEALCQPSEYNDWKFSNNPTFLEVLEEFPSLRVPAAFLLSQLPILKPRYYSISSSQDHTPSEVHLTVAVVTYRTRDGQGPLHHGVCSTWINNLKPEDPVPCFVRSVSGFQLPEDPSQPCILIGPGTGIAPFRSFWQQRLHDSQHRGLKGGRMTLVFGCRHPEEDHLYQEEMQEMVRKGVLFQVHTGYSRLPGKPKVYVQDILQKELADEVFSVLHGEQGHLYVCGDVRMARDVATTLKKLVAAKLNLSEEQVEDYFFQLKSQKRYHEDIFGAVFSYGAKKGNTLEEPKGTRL

With `N=C(Nc1ccc2c(c1)CCCCN2C1CCNCC1)c1cccs1`, at Nitric oxide synthase 1, the IC50 is 2.38 µM.
Regarding `N=C(Nc1ccc2c(c1)CCCCN2CCN1CCCC1)c1cccs1`, the figures for the IC50 (on Nitric oxide synthase 3; in data set [1]; at Nitric oxide synthase 1) were 82.2 µM, 16.9 µM and 0.16 µM, respectively.
`CN(C)CCN1CCCCc2cc(NC(=N)c3cccs3)ccc21.Cl.Cl`: the “inhibition (INH)” value in data set [2] is given as “Not Active”. The IC50 is 1.5 µM in data set [1] and > 100 µM in data set [3].
Take `N=C(Nc1ccc2c(c1)CCCCN2CCN1CCCCC1)c1cccs1`: the IC50 on Nitric oxide synthase 1 came to 1.96 µM.
Consider `CNCCN1CCCCc2cc(NC(=N)c3cccs3)ccc21`, for which the IC50 is > 100 µM in data set [1] and 0.1 µM on Nitric oxide synthase 1.
Turning to `N=C(Nc1ccc2c(c1)CCCCN2C1CCNC1)c1cccs1` (racemic), the IC50 in data set [1] was determined as 13.5 µM.
The same measure, in the same setting: for `CN1CCC(N2CCCCc3cc(NC(=N)c4cccs4)ccc32)C1` (racemic) the value was > 100 µM.
Consider `CN1CCCC1CCN1CCCCc2cc(NC(=N)c3cccs3)ccc21` (racemic), for which the values for the IC50 (in data set [1]; at Nitric oxide synthase 1) were > 100 µM and 1.86 µM, respectively.
